Source: the supplement of paper PMC10307832

Legend:
Assay in all cases: relative viability (nuclei count vs DMSO), 5 days (fraction); higher = more cells survive
Decitabine + Vorinostat = compound: Nc1ncn([C@H]2C[C@H](O)[C@@H](CO)O2)c(=O)n1 [Decitabine] + O=C(CCCCCCC(=O)Nc1ccccc1)NO [Vorinostat] (partner 1 µM)
Procedure, shortened: (§1)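 Lung cancer cell lines in 1536-well plates got either a single drug or a fixed anchor-drug dose together with five library-drug doses (not always all listed) in √10 steps, by pin tool, on the day after seeding. Nuclei were counted after 5 days, and relative viability is the treated-to-vehicle ratio of nuclei counts. Values are medians of duplicate plates.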

[1] = compound: O=C(C[C@H]1NCCC[C@@H]1O)Cn1cnc2cc(Br)c(Cl)cc2c1=O (racemic) [Halofuginone] + CC(=O)Nc1cccc(-n2c(=O)n(C3CC3)c(=O)c3c(Nc4ccc(I)cc4F)n(C)c(=O)c(C)c32)c1 [Trametinib] (partner 0.02 µM)
Procedure, shortened: as §1

Halofuginone + Dasatinib = compound: O=C(C[C@H]1NCCC[C@@H]1O)Cn1cnc2cc(Br)c(Cl)cc2c1=O (racemic) [Halofuginone] + Cc1nc(Nc2ncc(C(=O)Nc3c(C)cccc3Cl)s2)cc(N2CCN(CCO)CC2)n1 [Dasatinib] (partner 0.075 µM)
Procedure, shortened: as §1

Halofuginone + Olaparib = compound: O=C(C[C@H]1NCCC[C@@H]1O)Cn1cnc2cc(Br)c(Cl)cc2c1=O (racemic) [Halofuginone] + O=C(c1cc(Cc2n[nH]c(=O)c3ccccc23)ccc1F)N1CCN(C(=O)C2CC2)CC1 [Olaparib] (partner 8 µM)
Procedure, shortened: as §1

| Cell Line | relative viability (Decitabine + Vorinostat; first compound 0.04 µM) | relative viability (Decitabine + Vorinostat; first compound 0.1265 µM) | relative viability (Decitabine + Vorinostat; first compound 0.4 µM) | relative viability (Decitabine + Vorinostat; first compound 1.265 µM) | relative viability (Decitabine + Vorinostat; first compound 4 µM) | relative viability ([1]; first compound 0.001 µM) | relative viability ([1]; first compound 0.003162 µM) | relative viability ([1]; first compound 0.01 µM) | relative viability ([1]; first compound 0.03162 µM) | relative viability ([1]; first compound 0.1 µM) | relative viability (Halofuginone + Dasatinib; first compound 0.001 µM) | relative viability (Halofuginone + Dasatinib; first compound 0.003162 µM) | relative viability (Halofuginone + Dasatinib; first compound 0.01 µM) | relative viability (Halofuginone + Dasatinib; first compound 0.03162 µM) | relative viability (Halofuginone + Dasatinib; first compound 0.1 µM) | relative viability (Halofuginone + Olaparib; first compound 0.001 µM) | relative viability (Halofuginone + Olaparib; first compound 0.003162 µM) | relative viability (Halofuginone + Olaparib; first compound 0.01 µM) | relative viability (Halofuginone + Olaparib; first compound 0.03162 µM) | relative viability (Halofuginone + Olaparib; first compound 0.1 µM) |
| --- | --- | --- | --- | --- | --- | --- | --- | --- | --- | --- | --- | --- | --- | --- | --- | --- | --- | --- | --- | --- |
| NCI-H2087 | 0.268 | 0.285 | 0.301 | 0.304 | 0.208 | 0.219 | 0.213 | 0.222 | 0.197 | 0.156 | 0.834 | 1.16 | 0.9 | 0.808 | 0.522 | 0.616 | 0.685 | 0.629 | 0.617 | 0.277 |
| HOP-62 | 0.348 | 0.316 | 0.161 | 0.123 | 0.11 | 0.419 | 0.407 | 0.383 | 0.411 | 0.235 | 0.641 | 0.75 | 0.737 | 0.545 | 0.369 | 0.493 | 0.473 | 0.415 | 0.296 | 0.129 |
| EKVX | 0.455 | 0.506 | 0.507 | 0.432 | 0.335 | 0.383 | 0.358 | 0.339 | 0.37 | 0.314 | 0.522 | 0.445 | 0.662 | 0.605 | 0.418 | 0.861 | 0.849 | 0.789 | 0.843 | 0.645 |
| EMC-BAC-2 | – | 0.456 | 0.538 | 0.414 | 0.43 | 1.02 | 0.913 | 0.83 | 0.85 | 0.321 | 0.362 | 0.343 | 0.301 | 0.298 | 0.163 | 0.538 | 0.486 | 0.471 | 0.476 | 0.299 |
| HARA | 0.507 | 0.377 | 0.345 | 0.213 | 0.214 | 0.918 | 1.27 | 0.639 | 0.968 | 0.221 | 0.273 | 0.225 | 0.304 | 0.276 | 0.191 | 1.16 | 0.885 | 0.572 | 0.664 | 0.345 |
| LU99A | 0.469 | 0.513 | 0.523 | 0.453 | 0.397 | 0.554 | 0.598 | 0.545 | 0.589 | 0.536 | 0.743 | 0.584 | 0.453 | 0.53 | 0.392 | 0.268 | 0.257 | 0.25 | 0.248 | 0.286 |
| NCI-H1944 | 0.505 | 0.486 | 0.424 | 0.265 | 0.299 | 0.394 | 0.437 | 0.417 | 0.43 | 0.355 | 0.229 | 0.236 | 0.209 | 0.207 | 0.155 | 0.416 | 0.407 | 0.395 | 0.405 | 0.402 |
| LK-2 | 0.229 | 0.268 | 0.285 | 0.204 | 0.208 | 0.853 | 0.775 | 0.592 | 0.823 | 0.519 | 0.318 | 0.329 | 0.328 | 0.251 | 0.26 | 0.806 | 0.623 | 0.673 | 0.833 | 0.607 |
| NCI-H441 | 0.211 | 0.281 | 0.249 | 0.169 | 0.181 | 0.48 | 0.428 | 0.493 | 0.471 | 0.233 | 0.654 | 0.576 | 0.668 | 0.459 | 0.237 | 0.591 | 0.537 | 0.56 | 0.455 | 0.238 |
| NCI-H23 | 0.281 | 0.301 | 0.256 | 0.176 | 0.179 | 0.413 | 0.407 | 0.392 | 0.402 | 0.217 | 0.862 | 0.86 | 0.891 | 0.741 | 0.472 | 0.409 | 0.291 | 0.326 | 0.271 | 0.223 |
| NCI-H647 | 0.327 | 0.219 | 0.269 | 0.109 | 0.105 | 0.499 | 0.574 | 0.421 | 0.336 | 0.292 | 0.219 | 0.216 | 0.188 | 0.171 | 0.099 | 0.637 | 0.746 | 0.517 | 0.442 | 0.11 |
| 201T | 0.939 | 1.01 | 0.952 | – | 0.884 | 0.71 | 0.715 | 0.703 | 0.723 | 0.663 | 0.595 | 0.586 | 0.572 | 0.543 | 0.306 | 0.851 | 0.906 | 0.853 | 0.827 | 0.83 |
| NCI-H1734 | 0.698 | 0.685 | 0.48 | 0.297 | 0.306 | 0.68 | 0.721 | 0.733 | 0.602 | 0.171 | 0.52 | 0.558 | 0.436 | 0.449 | 0.293 | 0.632 | 0.621 | 0.6 | 0.584 | 0.22 |
| NCI-H596 | 0.613 | 0.618 | 0.553 | 0.51 | 0.507 | 0.889 | 0.732 | 0.811 | 0.898 | 0.542 | 0.538 | 0.533 | 0.598 | 0.559 | 0.366 | 0.756 | 0.737 | 0.655 | 0.752 | 0.549 |
